System: CD4+ T-lymphocytes from SJL mice
Experiment: Flow cytometry of surface marker expression in T-lymphocytes of immunized SJL mice
Format: in vivo
Source text: To characterize the features of immune response development upon immunization with a fusion protein comprising the neuroantigen MBP, a comparative analysis of specific surface markers expression in T-lymphocytes from SJL mice that were not immunized (control), from mice immunized with the synthetic peptide MBP89-104, recombinant fusion protein gp120I-IIImbp (the product of Construct No. 15 (see FIG. 3) at two different doses and recombinant protein gp120I-III (the product of Construct No. 13 (see FIG. 3) was carried out (FIG. 11). All the immunizations were performed in parallel under identical conditions as described above. Twenty one days after the beginning of an experiment, CD4+ T-lymphocytes isolated from two mice of each group were analyzed by flow cytometry. A specific feature of SJL mice was initially low CD8+ T-cell counts.

VVHFFKNIVTPRTPPPS [peptide MBP, encephalitogenic 89-104 peptide of the myelin basic protein, reference compound]
T-cell immune response by day 21 after immunization (surface markers CD11a, CD44, CD45RB, CD62-L): fully developed T-cell immune response

Source: patent publication US7560529B2, “Method for producing catalytic antibodies (variants), antigens for immunization and nucleotide sequence” (FDS Pharma, priority 2001, dated 2009)
